Reference: PubChem BioAssay AID328 (DTP/NCI, 2004)
“And” between values parts separate entries of the source, which are not always exact repeats. Identical values can stand only once. Inconclusive results and toxic doses are left out.

Tested on: BDF1 mice, P388 leukemia ip, median survival T/C
Experiment: NCI In Vivo Anticancer Drug Screen. Data for tumor model P388 Leukemia (intraperitoneal) in B6D2F1 (BDF1) mice
Details: endpoint: median survival time, higher = longer survival
Procedure, shortened: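 Mice carrying the transplantable tumour receive compound or vehicle. Survival is followed in each arm, and the treated measure is divided by the vehicle measure.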

[1] = dose: 12.5 mg/kg/injection, schedule: Q01DX009 (ip), vehicle: saline
[2] = dose: 25.0 mg/kg/injection, schedule: Q01DX009 (ip), vehicle: saline
[3] = dose: 50.0 mg/kg/injection, schedule: Q01DX009 (ip), vehicle: saline
[4] = dose: 100.0 mg/kg/injection, schedule: Q01DX009 (ip), vehicle: saline
[5] = dose: 200.0 mg/kg/injection, schedule: Q01DX009 (ip), vehicle: saline
[6] = dose: 400.0 mg/kg/injection, schedule: Q01DX009 (ip), vehicle: saline
[7] = dose: 100.0 mg/kg/injection, schedule: Q04DX003 (ip), vehicle: saline with Tween-80
[8] = dose: 200.0 mg/kg/injection, schedule: Q04DX003 (ip), vehicle: saline with Tween-80
[9] = dose: 400.0 mg/kg/injection, schedule: Q04DX003 (ip), vehicle: saline with Tween-80
[10] = dose: 25.0 mg/kg/injection, schedule: Q04DX003 (ip), vehicle: saline with Tween-80
[11] = dose: 50.0 mg/kg/injection, schedule: Q04DX003 (ip), vehicle: saline with Tween-80
[12] = dose: 100.0 mg/kg/injection, schedule: Q01DX009 (ip), vehicle: saline with Tween-80
[13] = dose: 200.0 mg/kg/injection, schedule: Q01DX009 (ip), vehicle: saline with Tween-80

CCOC(=O)C(C(C)=O)C(=O)OCC
T/C (dose: 25.0 mg/kg/injection, schedule: Q04DX003 (ip), vehicle: other): 90 % of control
T/C (dose: 50.0 mg/kg/injection, schedule: Q01DX009 (ip), vehicle: other): 113 % of control
T/C (dose: 50.0 mg/kg/injection, schedule: Q04DX003 (ip), vehicle: other): 99 % of control
T/C (dose: 100.0 mg/kg/injection, schedule: Q01DX009 (ip), vehicle: other): 100 % of control
T/C (dose: 100.0 mg/kg/injection, schedule: Q04DX003 (ip), vehicle: other): 99 % of control
T/C (dose: 200.0 mg/kg/injection, schedule: Q04DX003 (ip), vehicle: other): 92 % of control
T/C (dose: 400.0 mg/kg/injection, schedule: Q01DX009 (ip), vehicle: other): 88 % of control
T/C (dose: 400.0 mg/kg/injection, schedule: Q04DX003 (ip), vehicle: other): 110 % of control

OC1CCCC2CCC[N-]C12.OC1CCCC2CCC[N-]C12.[O]=[V][OH] (stereo not drawn)
T/C (dose: 3.12 mg/kg/injection, schedule: Q01DX009 (ip), vehicle: Klucel (hydroxypropylcellulose) (HPC)): 100 % of control
T/C (dose: 6.25 mg/kg/injection, schedule: Q01DX009 (ip), vehicle: Klucel (hydroxypropylcellulose) (HPC)): 95 % of control
T/C (dose: 6.25 mg/kg/injection, schedule: Q01DX009 (ip), vehicle: saline): 110 % of control
T/C (dose: 12.5 mg/kg/injection, schedule: Q01DX009 (ip), vehicle: Klucel (hydroxypropylcellulose) (HPC)): 100 % of control
T/C [1]: 150 % of control
T/C (dose: 25.0 mg/kg/injection, schedule: Q01DX009 (ip), vehicle: Klucel (hydroxypropylcellulose) (HPC)): 100 % of control

O=S(=O)(O)c1ccc(CCCCCCl)cc1
T/C [2]: 109 % of control
T/C [3]: 100 % of control
T/C (dose: 100.0 mg/kg/injection, schedule: Q01DX001 (ip), vehicle: saline): 110 % of control
T/C [4]: 104 % of control and 110 % of control
T/C (dose: 200.0 mg/kg/injection, schedule: Q01DX001 (ip), vehicle: saline): 90 % of control
T/C [5]: 100 % of control
T/C (dose: 400.0 mg/kg/injection, schedule: Q01DX001 (ip), vehicle: saline): 90 % of control
T/C [6]: 110 % of control

CCCC(Cc1ccccc1)(C(=O)OCC)C(=O)OCC
T/C [7]: 99 % of control
T/C [8]: 99 % of control
T/C [9]: 91 % of control

COc1cc(C=O)cc(I)c1O
T/C (dose: 12.5 mg/kg/injection, schedule: Q01DX009 (ip), vehicle: saline sonified): 105 % of control
T/C (dose: 12.5 mg/kg/injection, schedule: Q04DX003 (ip), vehicle: saline with Tween-80): 86 % of control
T/C (dose: 25.0 mg/kg/injection, schedule: Q01DX009 (ip), vehicle: saline sonified): 94 % of control
T/C [10]: 90 % of control
T/C (dose: 50.0 mg/kg/injection, schedule: Q01DX009 (ip), vehicle: saline sonified): 100 % of control
T/C [11]: 100 % of control

Cc1ccc(C2(C#N)CC2)cc1
T/C [12]: 108 % of control
T/C [7]: 100 % of control
T/C [13]: 112 % of control
T/C [8]: 108 % of control
T/C (dose: 400.0 mg/kg/injection, schedule: Q01DX009 (ip), vehicle: saline with Tween-80): 116 % of control
T/C [9]: 116 % of control

CC(=O)Nc1cc(C)cc(CO)c1C
T/C [10]: 86 % of control
T/C [11]: 96 % of control
T/C [7]: 93 % of control
T/C [8]: 88 % of control

OCCN1CCOCC1
T/C [4]: 109 % of control
T/C [5]: 109 % of control
T/C [6]: 109 % of control

CC(=O)N1C(=O)N(Cl)C(=O)C1(C)c1cccs1 (stereo not drawn)
T/C (dose: 66.0 mg/kg/injection, schedule: Q01DX009 (ip), vehicle: saline with Tween-80): 97 % of control
T/C [12]: 103 % of control
T/C [13]: 100 % of control

O=C(CC(O)(C(F)(F)F)C(F)(F)F)c1ccc(Cl)cc1
T/C (dose: 50.0 mg/kg/injection, schedule: Q01DX009 (ip), vehicle: saline with Tween-80): 108 % of control
T/C [12]: 95 % of control
T/C [13]: 108 % of control

Cc1ccc(-c2nc3sccn3c2/C=N/NS(=O)(=O)c2ccc(C)cc2)cc1
T/C (dose: 100.0 mg/kg/injection, schedule: Q01DX001 (ip), vehicle: Klucel (hydroxypropylcellulose) (HPC)): 101 % of control
T/C (dose: 200.0 mg/kg/injection, schedule: Q01DX001 (ip), vehicle: Klucel (hydroxypropylcellulose) (HPC)): 101 % of control
T/C (dose: 400.0 mg/kg/injection, schedule: Q01DX001 (ip), vehicle: Klucel (hydroxypropylcellulose) (HPC)): 101 % of control

Cc1cccc2c(N3CCOCC3)c3c(nc12)CCCCC3
T/C [7]: 105 % of control
T/C [8]: 95 % of control
T/C [9]: 100 % of control

COc1cccc2c1C(=O)c1c(O)c3c(c(O)c1C2=O)C[C@@](O)(/C(C)=N/NC(=O)c1ccccc1)C[C@@H]3OC1CC(N)C(O)C(C)O1 (stereo partly drawn)
T/C (dose: 0.38 mg/kg/injection, schedule: Q01DX009 (ip), vehicle: water): 166 % of control
T/C (dose: 0.75 mg/kg/injection, schedule: Q01DX009 (ip), vehicle: water): 166 % of control
T/C (dose: 1.5 mg/kg/injection, schedule: Q01DX009 (ip), vehicle: saline): 216 % of control
T/C (dose: 1.5 mg/kg/injection, schedule: Q01DX009 (ip), vehicle: water): 123 % of control and 217 % of control
T/C (dose: 3.0 mg/kg/injection, schedule: Q01DX009 (ip), vehicle: saline): 250 % of control
T/C (dose: 3.0 mg/kg/injection, schedule: Q01DX009 (ip), vehicle: water): 245 % of control and 110 % of control
T/C (dose: 3.0 mg/kg/injection, schedule: Q04DX003 (ip), vehicle: saline): 226 % of control
T/C (dose: 6.0 mg/kg/injection, schedule: Q01DX009 (ip), vehicle: saline): 166 % of control
T/C (dose: 6.0 mg/kg/injection, schedule: Q01DX009 (ip), vehicle: water): 164 % of control
T/C (dose: 6.0 mg/kg/injection, schedule: Q04DX003 (ip), vehicle: saline): 208 % of control
T/C (dose: 6.5 mg/kg/injection, schedule: Q04DX003 (ip), vehicle: water): 171 % of control
T/C (dose: 10.8 mg/kg/injection, schedule: Q04DX003 (ip), vehicle: water): 165 % of control
T/C (dose: 12.0 mg/kg/injection, schedule: Q01DX009 (ip), vehicle: saline): 95 % of control
T/C (dose: 12.0 mg/kg/injection, schedule: Q04DX003 (ip), vehicle: saline): 195 % of control
T/C (dose: 18.0 mg/kg/injection, schedule: Q04DX003 (ip), vehicle: water): 103 % of control

CCC[CH2][Sn]([CH2]CCC)([O]C(C)=O)[O]C(C)=O
T/C (dose: 3.12 mg/kg/injection, schedule: Q01DX009 (ip), vehicle: saline with Tween-80): 114 % of control
T/C (dose: 6.12 mg/kg/injection, schedule: Q01DX009 (ip), vehicle: saline): 154 % of control
T/C (dose: 6.25 mg/kg/injection, schedule: Q01DX009 (ip), vehicle: saline with Tween-80): 151 % of control
T/C (dose: 12.5 mg/kg/injection, schedule: Q01DX009 (ip), vehicle: saline with Tween-80): 86 % of control
T/C [1]: 156 % of control

O=c1[nH]cnc2ccc(Cl)cc12
T/C (dose: 37.5 mg/kg/injection, schedule: Q01DX009 (ip), vehicle: saline with Tween-80): 92 % of control
T/C (dose: 37.5 mg/kg/injection, schedule: Q04DX003 (ip), vehicle: saline with Tween-80): 92 % of control
T/C (dose: 75.0 mg/kg/injection, schedule: Q01DX009 (ip), vehicle: saline with Tween-80): 96 % of control

NNc1ncnc2c1ncn2C1OC(CO)C(O)C1O (stereo not drawn)
T/C (dose: 7.5 mg/kg/injection, schedule: Q04DX003 (ip), vehicle: saline): 90 % of control
T/C [1]: 109 % of control
T/C (dose: 15.0 mg/kg/injection, schedule: Q01DX010 (ip), vehicle: saline): 113 % of control
T/C (dose: 15.0 mg/kg/injection, schedule: Q04DX003 (ip), vehicle: saline): 105 % of control
T/C [2]: 109 % of control
T/C (dose: 30.0 mg/kg/injection, schedule: Q04DX003 (ip), vehicle: saline): 105 % of control
T/C [3]: 113 % of control
T/C (dose: 60.0 mg/kg/injection, schedule: Q01DX010 (ip), vehicle: saline): 154 % of control
T/C (dose: 60.0 mg/kg/injection, schedule: Q04DX003 (ip), vehicle: saline): 120 % of control
T/C (dose: 120.0 mg/kg/injection, schedule: Q04DX003 (ip), vehicle: saline): 105 % of control

C=C1C(=O)OC2CC3(C)OC3C3OC3C3=CC(OC3=O)C12 (stereo not drawn)
T/C (dose: 1.25 mg/kg/injection, schedule: Q01DX010 (ip), vehicle: saline): 115 % of control
T/C (dose: 2.5 mg/kg/injection, schedule: Q01DX010 (ip), vehicle: saline): 115 % of control
T/C (dose: 5.0 mg/kg/injection, schedule: Q01DX010 (ip), vehicle: saline): 115 % of control
T/C (dose: 10.0 mg/kg/injection, schedule: Q01DX010 (ip), vehicle: saline): 100 % of control
